How the values were obtained:
panel of 442 kinases [1] = molecular target: T1, panel of 442 kinases (Homo sapiens, UniProt P53779); type: binding; conditions: Compound Concentration 10 µM
T1 construct: purchased KINOMEscan
From the text: (§1) We assessed the selectivity of members of this scaffold using the KINOMEscan methodology across a near comprehensive panel of 442 kinases [[18,27]].

panel of 442 kinases [2] = molecular target: T2, panel of 442 kinases (Homo sapiens, UniProt Q9UHD2); type: binding; conditions: kinase TBK1; compound concentration 10 µM
T2 construct: purchased KINOMEscan
T2 sequence (Q9UHD2 1-729): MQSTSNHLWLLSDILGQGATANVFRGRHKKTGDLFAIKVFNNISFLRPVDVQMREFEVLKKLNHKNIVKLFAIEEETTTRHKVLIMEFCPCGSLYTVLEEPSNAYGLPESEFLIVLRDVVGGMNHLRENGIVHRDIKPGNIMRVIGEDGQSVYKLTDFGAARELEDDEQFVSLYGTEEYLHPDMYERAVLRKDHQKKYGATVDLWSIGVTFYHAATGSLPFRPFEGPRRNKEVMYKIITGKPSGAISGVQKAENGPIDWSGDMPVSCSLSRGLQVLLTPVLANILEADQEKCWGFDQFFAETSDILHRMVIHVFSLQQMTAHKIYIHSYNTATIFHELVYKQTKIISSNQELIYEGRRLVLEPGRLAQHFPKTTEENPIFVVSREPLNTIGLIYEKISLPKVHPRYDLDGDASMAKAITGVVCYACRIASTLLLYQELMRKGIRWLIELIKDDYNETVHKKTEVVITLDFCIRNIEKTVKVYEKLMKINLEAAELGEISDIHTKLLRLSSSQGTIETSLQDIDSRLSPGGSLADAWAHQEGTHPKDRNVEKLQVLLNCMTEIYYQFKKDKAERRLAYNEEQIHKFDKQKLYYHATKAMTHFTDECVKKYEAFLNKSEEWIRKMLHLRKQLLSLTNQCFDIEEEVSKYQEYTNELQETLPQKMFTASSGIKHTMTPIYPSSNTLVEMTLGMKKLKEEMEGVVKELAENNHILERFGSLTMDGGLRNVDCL
From the text: as §1

T1 sequence (P53779 whole entry): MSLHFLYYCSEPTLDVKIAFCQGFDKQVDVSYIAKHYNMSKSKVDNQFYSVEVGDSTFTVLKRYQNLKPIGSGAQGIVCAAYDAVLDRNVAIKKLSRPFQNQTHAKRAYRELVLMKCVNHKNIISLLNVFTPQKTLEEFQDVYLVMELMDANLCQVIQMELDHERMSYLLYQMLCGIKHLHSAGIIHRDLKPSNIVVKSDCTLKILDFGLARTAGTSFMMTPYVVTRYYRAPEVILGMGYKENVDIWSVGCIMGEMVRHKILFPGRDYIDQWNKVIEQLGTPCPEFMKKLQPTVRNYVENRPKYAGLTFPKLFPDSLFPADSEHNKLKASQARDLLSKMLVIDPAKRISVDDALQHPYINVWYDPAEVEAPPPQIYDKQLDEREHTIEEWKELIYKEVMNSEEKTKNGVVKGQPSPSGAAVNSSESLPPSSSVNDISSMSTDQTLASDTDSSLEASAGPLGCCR

| Compound | KINOMEscan: JNK3 (panel of 442 kinases [1]) | % Ctrl, TBK1 (panel of 442 kinases [2]) [% Ctrl] |
| --- | --- | --- |
| COc1cc(C(=O)N2CCC(N3CCN(C)CC3)CC2)ccc1Nc1ncc2c(n1)N(C1CCCC1)c1ccccc1C(=O)N2C [Compound 25, 11-cyclopentyl-2-((2-methoxy-4-(4-(4-methylpiperazin-1-yl)piperidine-1-carbonyl)phenyl)amino)-5-methyl-5H-benzo[e]pyrimido[5,4-b][1,4]diazepin-6(11H)-one] | 48 | 100 |
| COc1cc(C(=O)N2CCC(N3CCN(C)CC3)CC2)ccc1Nc1ncc2c(n1)N1CCc3cccc(c31)C(=O)N2C [Compound 24] | 43 | 98 |
| COc1cc(C(=O)N2CCC(N3CCN(C)CC3)CC2)ccc1Nc1ncc2c(n1)N(C)c1ccccc1C(=O)N2C [15 (LRRK2-IN-1)] | 77 | 97 |
| CCOc1cc(C(=O)N2CCC(N3CCN(C)CC3)CC2)ccc1Nc1ncc2c(n1)N(C1CCCC1)c1ccccc1C(=O)N2C [Compound 26] | 74 | 100 |

Reference: publication PMC3914206
